Structures can show the parent of a compound that is named as a salt.
Legend:
MDA-MB-231 cells = assay: Total cellular cAMP measurement, MDA-MB-231; assay type: cell-based, human
Experimental: (§1) Total cellular cAMP measurement—The measurement of total cellular cAMP was done using a cAMP Biotrak ™ Enzymeimmunoassay (EIA) system (Amersham Biosciences, Piscataway, N.J.) according to the manufacturer's protocol. Briefly, 2000 cells were plated into each well of a 96 well plate. The next day cells were treated with increasing concentrations of ARA-211 or with vehicle for one hour. Alternatively, MDA-MB-231 cells were pre-treated with antagonists to the α1 (Prazosin, Sigma), α2 (Yohimbine, Sigma), β1 (Metoprolol, Sigma), and β2 (ICI 118.551, Sigma) adrenergic receptors at 100 nM for 15 minutes followed by treatment with 10 μM ARA-211 for 45 minutes. Cells were then lysed directly in the wells using the supplied lysis buffer. The lysate was transferred to a 96-well cAMP ELISA plate, and results were quantified using a Wallac Victor 2 plate reader.

SNB-19 cells [1] = assay: Total cellular cAMP measurement, SNB-19; assay type: cell-based, human
Experimental: as §1

P-Erk 1/2 [2] = assay: P-Erk 1/2 levels (Western blotting), MDA-MB-231; assay type: cell-based, human
Experimental: (§2) Western Blotting—Treated cell samples were lysed in 30 mM HEPES, 10 mM NaCl, 5 mM MgCl2, 25 mM NaF, 1 mM EGTA, 1% Triton-X-100, 10% Glycerol, 2 mM Sodium orthovanidate, 10 μg/mL aprotinin, 10 μg/mL soybean trypsin inhibitor, 25 μg/mL leupeptin, 2 mM phenylmethylsulfonylfluoride (PMSF), 6.4 mg/mL p-nitrophenylphosphate for 30 minutes at 4° C., and proteins run on SDS-PAGE gels then transferred to nitrocellulose membranes. Membranes were blocked in either 5% milk in PBS, pH 7.4, containing 0.1% Tween-20 (PBS-T) or 1% BSA in TBS, pH 7.5, containing 0.1% Tween-20 (TBS-T). Phospho-STAT3 and phospho-AKT antibodies were diluted in 1% BSA in TBS-T while phospho-c-Raf, phospho-Mek, and phospho-p44/p42 MAPK antibodies (Cell Signaling) were diluted in 5% milk in PBS-T for either 1 hour at room temperature or overnight at 4° C. HRP-conjugated secondary antibodies (Jackson ImmunoResearch, West Grove, Pa.) were diluted in 5% milk in PBS-T or TBS-T at a 1:1000 dilution for one hour at room temperature. Western blots results were visualized using enhanced chemiluminescence. Stripping of the membranes for reblotting was done using stripping buffer (62.5 mM Tris pH 7.6, 2% SDS, 0.7% 2-mercaptoethanol) at 50° C. for 30 minutes.

P-Erk 1/2 [3] = assay: P-Erk 1/2 levels (Western blotting), SF-539; assay type: cell-based, human
Experimental: as §2

P-Erk 1/2 [4] = assay: P-Erk 1/2 levels (Western blotting), ACHN; assay type: cell-based, human
Experimental: as §2

ACHN cells [5] = assay: Anchorage-dependent growth (MTT assay), ACHN; assay type: cell-based, human
Experimental: (§3) MTT Assay—2000 cells per well were plated into 96 well tissue culture plates, and the cells were allowed to attach overnight at 37° C. with 10% CO2. Cells were then treated with increasing concentrations of ARA-211, or vehicle (DMSO) and incubated for four days. At that time treatment medium was removed and replaced with 100 μl of lmg/ml MTT (Sigma-Aldrich, St. Louis, Mo.) in media and incubated at 37° C., 10% CO2 for 3 hours. After 3 hours the MTT media was removed and replaced with 100 μl/well of DMSO, rocked at room temperature for 5 minutes, then absorbance read at 540 nm on a micro-plate reader.

HCT-116 cells = assay: Anchorage-dependent growth (MTT assay), HCT-116; assay type: cell-based, human
Experimental: as §3

ACHN cells [6] = assay: Anchorage-independent growth (soft agar assay), ACHN; assay type: cell-based, human
Experimental: (§4) Soft Agar Assay—Anchorage independent growth assays were performed as previously described (Lerner et al., 1997). Briefly, agar was diluted to 0.3% in propagation media containing 20,000 cells and either vehicle or ARA-211 and 1 ml of cell/agar mixture plated on top of 2 ml of a 0.6% layer of agar in medium alone. Cells were grown for three to four weeks at 37° C., 10% Co2 and were fed weekly with 100 μl per well of media/treatment. Quantification of colonies was done using a GS-700 scanning densitometer.

SNB-19 cells [7] = assay: Anchorage-independent growth (soft agar assay), SNB-19; assay type: cell-based, human
Experimental: as §4

SF-539 cells = assay: Apoptosis assay (Cell Death Detection ELISA), SF-539; assay type: cell-based, human; conditions: 48 hours
Experimental: (§5) Apoptosis Assay—Apoptosis was analyzed using the Cell Death Detection ELISA (Roche, Indianapolis, Ind.) measuring cytoplasmic histone-associated mono- and oligonucleosome DNA fragments. Procedures were carried out according to the manufacturers protocol. Briefly, 1×10^5 cells were plated in 60 mm dishes and treated with various doses of ARA-211 or vehicle for 48 hours. Cells were lysed with the provided lysis buffer and lysate was incubated on the ELISA plate for 1 hour to capture the histone associated DNA indicative of apoptotic cells. Anti-DNA peroxidase conjugated antibody was added to detect the cleaved DNA and the microplate was washed and developed with ABTS substrate which was quantitated by microplate reader at 405 nm.

SNB-19 cells [8] = assay: Apoptosis assay (Cell Death Detection ELISA), SNB-19; assay type: cell-based, human; conditions: 48 hours, two single values
Experimental: as §5

A-549 cells = assay: Nude mouse xenograft model, A-549 (s.c.); assay type: in vivo, nude mice; conditions: A-549 xenograft; i.p. 75 mpk/day
Source text: Anti-tumor activity in nude mouse xenograft model—Female athymic nude (nu/nu) mice, 5-6 weeks old, were purchased from Charles River (Wilmington, Mass.) and allowed to acclimate in the animal facility for one week. After harvesting, A-549, SNB-19, ACHN, and HCT-116 cells were, resuspended in sterile PBS, and injected s.c. into the right and left flanks (10×10^6 cells per flank) of the mice as previously described (Sun et al., 2005). For MDA-MB-231, cells were harvested and resuspended in PBS (10×10^6 cells per 50 μl) and an equal volume of Matrigel (BD Biosciences, San Jose, Calif.). 100 μl of MDA-MB-231 cells in PBS/Matrigel were injected s.c. into the mammary fat pads between the 2nd and 3rd nipples on each side of the mice. Once the tumors reached approximately 200-300 mm^3 the mice were randomized and treated i.p. with 0.1 ml vehicle (PBS) or ARA-211. Each treatment group consisted of five mice (2 tumors per mouse, a total of 10 tumors). The tumor volumes were determined by measuring the length (l) and width (w) and calculating the volume (V=w^2l/2). Statistical significance between the control and treated animals was determined using a student's t test.

CC(C)(C)NCC(O)c1ccc(O)c(CO)n1 (stereo not shown) [ARA-211, 2-hydroxymethyl-3-hydroxy-6-(1-hydroxy-2-tert-butylaminoethyl) pyridine, dihydrochloride]
cAMP (Fold Induction) (MDA-MB-231 cells): 16.7 ± 5.4 Fold
formation of cAMP (MDA-MB-231 cells): induced the formation of CAMP
adrenergic receptor selectivity (which antagonist blocks cAMP induction) (MDA-MB-231 cells; β1, β2, α1, α2 antagonists 100 nM pre-treatment, 10 μM ARA-211): highly selective for β2 adrenergic receptors
cAMP (Fold Induction) (SNB-19 cells [1]): 1.2 ± 0.4 Fold
P-Erk ½ (% Inhibition) (P-Erk 1/2 [2]; MDA-MB-231): 100%
levels of P-Erk 1/2 (P-Erk 1/2 [2]; MDA-MB-231, at 10 nM): suppressed potently
inhibition of P-Erk 1/2 in cells ectopically expressing constitutively activated Mek-1 (P-Erk 1/2 [2]; MDA-MB-231 with CA-Mek, 10 μM, 48 hours): resistant
P-Erk ½ (% Inhibition) (P-Erk 1/2 [3]): 100%
P-Erk ½ (% Inhibition) (P-Erk 1/2 [4]): 91%
Anchorage Dependent Growth (% Inhibition) (ACHN cells [5]): 62 ± 12.7%
Anchorage Dependent Growth (% Inhibition) (HCT-116 cells): 6.5 ± 4%
Anchorage Independent Growth (% Inhibition) (ACHN cells [6]): 97.9 ± 1.2%
Anchorage Independent Growth (% Inhibition) (SNB-19 cells [7]): 5.1 ± 5.0%
Apoptosis (% Induction) (SF-539 cells): 9 ± 1.7%
Apoptosis (% Induction) (SNB-19 cells [8]): 0, 0%
growth of tumors (A-549 cells): is not affected
